How the values were obtained:
Assay type in all cases: cell-based
E. coli DH5α = experiment: Antibacterial activity: MIC and growth curve against E. coli DH5α in 96-well plate; conditions: minimal inhibitory concentration against E. coli DH5α; 96-well plate, 5×10^5 CFU/mL, 37° C., judged after 8 h
In short: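 Log-phase DH5α (OD600 about 0.5, 37° C, 185 rpm in LB) was pelleted, resuspended in fresh LB and seeded at 5×10^5 CFU/mL with recombinant protein at 50, 25 and 12.5 μg/mL (two-fold series), in triplicate. Plates were shaken at 175 rpm, 37° C, and OD600 was read every 30 min. MIC was the lowest concentration with no growth.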

E. coli BL21 = experiment: MIC against Gram-negative bacteria: E. coli BL21; conditions: 5×10^5 CFU/mL
In short: (§1)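 Inocula prepared by growing LB cultures at 37° C to 0.5 McFarland, centrifuging at 4000×g, and resuspending in fresh medium. Final density 5×10^5 CFU/mL per well with two-fold dilutions of purified EGF domain protein; shaking incubation at 37° C.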

Pseudomonas aeruginosa = experiment: MIC against Gram-negative bacteria: Pseudomonas aeruginosa; conditions: 5×10^5 CFU/mL; for MIC (μg/mL) P. aeruginosa: Pseudomonas aeruginosa
In short: as §1

Klebsiella pneumonia = experiment: MIC against Gram-negative bacteria: Klebsiella pneumonia; conditions: 5×10^5 CFU/mL; for MIC (μg/mL) K. pneumonia: Klebsiella pneumonia
In short: as §1

Enterobacter cloacae = experiment: MIC against Gram-negative bacteria: Enterobacter cloacae; conditions: 5×10^5 CFU/mL; for MIC (μg/mL) E. cloacae: Enterobacter cloacae
In short: as §1

Aeromonas hydrophila = experiment: MIC against Gram-negative bacteria: Aeromonas hydrophila; conditions: 5×10^5 CFU/mL; for MIC (μg/mL) A. hydrophila: Aeromonas hydrophila
In short: as §1

Citrobacter diversus = experiment: MIC against Gram-negative bacteria: Citrobacter diversus; conditions: 5×10^5 CFU/mL; for MIC (μg/mL) C. diversus: Citrobacter diversus
In short: as §1

Moraxella catarrhalis = experiment: MIC against Gram-negative bacteria: Moraxella catarrhalis; conditions: 5×10^5 CFU/mL; for MIC (μg/mL) M. catarrhalis: Moraxella catarrhalis
In short: as §1

Proteus mirabilis = experiment: MIC against Gram-negative bacteria: Proteus mirabilis; conditions: 5×10^5 CFU/mL; for MIC (μg/mL) P. mirabilis: Proteus mirabilis
In short: as §1

Proteus vulgaris = experiment: MIC against Gram-negative bacteria: Proteus vulgaris; conditions: 5×10^5 CFU/mL; for MIC (μg/mL) P. vulgaris: Proteus vulgaris
In short: as §1

Serratia marcescens = experiment: MIC against Gram-negative bacteria: Serratia marcescens; conditions: 5×10^5 CFU/mL; for MIC (μg/mL) S. marcescens: Serratia marcescens
In short: as §1

[1] = 10 h cultivation at 37° C., two-fold serial dilution
[2] = E. coli BL21, 96-well plate, 37° C., 10 h

PRT1150 (HVPWCAHHLCRNNGTCISDNENLFCECPRLYSGK; listed as Homo sapiens)
50 µg/mL: MIC E. coli BL21 (E. coli BL21; [1]) | MIC K. pneumonia (Klebsiella pneumonia; [1]) | MIC A. hydrophila (Aeromonas hydrophila; [1]) | MIC P. vulgaris (Proteus vulgaris; [1])
12.5 µg/mL: MIC (E. coli DH5α) | MIC P. aeruginosa (Pseudomonas aeruginosa; [1]) | MIC E. cloacae (Enterobacter cloacae; [1]) | MIC M. catarrhalis (Moraxella catarrhalis; [1])
25 µg/mL: MIC C. diversus (Citrobacter diversus; [1]) | MIC P. mirabilis (Proteus mirabilis; [1]) | MIC S. marcescens (Serratia marcescens; [1])

PRT420 (DIDECVTGIHNCSINETCFNIQGGFRCLAFECPENYRRSAATLQQEKTDTVRCI; listed as Homo sapiens)
100 µg/mL: MIC (Proteus vulgaris; P. vulgaris, 10 h cultivation at 37° C.)
50 µg/mL: MIC (E. coli DH5α) | MIC (Enterobacter cloacae; E. cloacae, 10 h cultivation at 37° C.) | MIC (Citrobacter diversus; C. diversus, 10 h cultivation at 37° C.) | MIC (Proteus mirabilis; P. mirabilis, 10 h cultivation at 37° C.) | MIC (Serratia marcescens; S. marcescens, 10 h cultivation at 37° C.)
25 µg/mL: MIC (E. coli BL21; E. coli BL21, 10 h cultivation at 37° C.) | MIC (Klebsiella pneumonia; K. pneumonia, 10 h cultivation at 37° C.)
12.5 µg/mL: MIC (Pseudomonas aeruginosa; P. aeruginosa, 10 h cultivation at 37° C.) | MIC (Aeromonas hydrophila; A. hydrophila, 10 h cultivation at 37° C.) | MIC (Moraxella catarrhalis; M. catarrhalis, 10 h cultivation at 37° C.)

PRT552 (CACGPAAEGSECHPQSGQCHCRPGTMGPQCRECAPGYWGLPEQGCRR; listed as Homo sapiens)
50 µg/mL: MIC against P. aeruginosa (Pseudomonas aeruginosa; 96-well plate, 37° C., 10 h) | MIC against E. cloacae (Enterobacter cloacae; 96-well plate, 37° C., 10 h) | MIC against C. diversus (Citrobacter diversus; 96-well plate, 37° C., 10 h)
25 µg/mL: MIC (E. coli DH5α) | MIC against M. catarrhalis (Moraxella catarrhalis; 96-well plate, 37° C., 10 h) | MIC against P. vulgaris (Proteus vulgaris; 96-well plate, 37° C., 10 h)
100 µg/mL: MIC against E. coli BL21 (E. coli BL21; 96-well plate, 37° C., 10 h)
12.5 µg/mL: MIC against K. pneumonia (Klebsiella pneumonia; 96-well plate, 37° C., 10 h) | MIC against A. hydrophila (Aeromonas hydrophila; 96-well plate, 37° C., 10 h) | MIC against P. mirabilis (Proteus mirabilis; 96-well plate, 37° C., 10 h) | MIC against S. marcescens (Serratia marcescens; 96-well plate, 37° C., 10 h)

PRT685 (DVNECLEGDFCFPHGECLNTDGSFACTCAPGYRPGPRGASCL; listed as Homo sapiens)
50 µg/mL: MIC (E. coli DH5α) | MIC K. pneumonia (Klebsiella pneumonia; 96-well plate, 37° C., 10 h) | MIC A. hydrophila (Aeromonas hydrophila; 96-well plate, 37° C., 10 h) | MIC M. catarrhalis (Moraxella catarrhalis; 96-well plate, 37° C., 10 h) | MIC P. vulgaris (Proteus vulgaris; 96-well plate, 37° C., 10 h) | MIC S. marcescens (Serratia marcescens; 96-well plate, 37° C., 10 h)
25 µg/mL: MIC E. coli BL21 (E. coli BL21; 96-well plate, 37° C., 10 h) | MIC P. mirabilis (Proteus mirabilis; 96-well plate, 37° C., 10 h)
12.5 µg/mL: MIC P. aeruginosa (Pseudomonas aeruginosa; 96-well plate, 37° C., 10 h) | MIC E. cloacae (Enterobacter cloacae; 96-well plate, 37° C., 10 h) | MIC C. diversus (Citrobacter diversus; 96-well plate, 37° C., 10 h)

PRT98 (DINECATPSKVSCGKFSDCWNTEGSYDCVCSPGYEPVSGAKTFKNESENTCQ; listed as Homo sapiens)
12.5 µg/mL: MIC (E. coli DH5α) | MIC (μg/mL) K. pneumonia (Klebsiella pneumonia; 96-well plate, 37° C., 10 h) | MIC (μg/mL) P. vulgaris (Proteus vulgaris; 96-well plate, 37° C., 10 h)
100 µg/mL: MIC (μg/mL) M. catarrhalis (Moraxella catarrhalis; 96-well plate, 37° C., 10 h)
50 µg/mL: MIC (μg/mL) E. coli BL21 (E. coli BL21; [2]) | MIC (μg/mL) A. hydrophila (Aeromonas hydrophila; 96-well plate, 37° C., 10 h) | MIC (μg/mL) P. mirabilis (Proteus mirabilis; 96-well plate, 37° C., 10 h) | MIC (μg/mL) S. marcescens (Serratia marcescens; 96-well plate, 37° C., 10 h)
25 µg/mL: MIC (μg/mL) P. aeruginosa (Pseudomonas aeruginosa; 96-well plate, 37° C., 10 h) | MIC (μg/mL) E. cloacae (Enterobacter cloacae; 96-well plate, 37° C., 10 h) | MIC (μg/mL) C. diversus (Citrobacter diversus; 96-well plate, 37° C., 10 h)

PRT80 (TNVCDLNPCEHQSVCTRKPSAPHGYTCECPPNYLGPYCE; listed as Homo sapiens)
12.5 µg/mL: MIC (E. coli DH5α) | MIC (μg/mL) P. aeruginosa (Pseudomonas aeruginosa; 96-well plate, 37° C., 10 h) | MIC (μg/mL) E. cloacae (Enterobacter cloacae; 96-well plate, 37° C., 10 h) | MIC (μg/mL) C. diversus (Citrobacter diversus; 96-well plate, 37° C., 10 h) | MIC (μg/mL) P. mirabilis (Proteus mirabilis; 96-well plate, 37° C., 10 h) | MIC (μg/mL) P. vulgaris (Proteus vulgaris; 96-well plate, 37° C., 10 h) | MIC (μg/mL) S. marcescens (Serratia marcescens; 96-well plate, 37° C., 10 h)
25 µg/mL: MIC (μg/mL) K. pneumonia (Klebsiella pneumonia; 96-well plate, 37° C., 10 h) | MIC (μg/mL) A. hydrophila (Aeromonas hydrophila; 96-well plate, 37° C., 10 h) | MIC (μg/mL) M. catarrhalis (Moraxella catarrhalis; 96-well plate, 37° C., 10 h)
50 µg/mL: MIC (μg/mL) E. coli BL21 (E. coli BL21; [2])

— patent US9833497B2, “Human originated EGF domain proteins and use of the same” (CHENGDU SOURCEBIO LIMITED-LIABILITY COMPANY, priority 2013, dated 2017)
